Experimental data as given in PubChem BioAssay (NCI).
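Dose response: 5 concentrations. Exposure: 48 h. Format: 96-well plates. Endpoint: linear interpolation; highest concentration if not reached. TGI marks complete inhibition of growth.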

Tests used:
Assay in all cases: growth of human tumour cells (NCI), 48 h
HOP-92 NSCLC = system: HOP-92 NSCLC
UACC-62 melanoma = system: UACC-62 melanoma
BT-549 breast = system: BT-549 breast
A549 NSCLC = system: A549 NSCLC
OVCAR-4 ovarian = system: OVCAR-4 ovarian
HCC-2998 colon = system: HCC-2998 colon
COLO 205 colon = system: COLO 205 colon
RPMI-8226 leukemia = system: RPMI-8226 leukemia
DU-145 prostate = system: DU-145 prostate
M14 melanoma = system: M14 melanoma
KM12 colon = system: KM12 colon
TK-10 renal = system: TK-10 renal
SNB-19 CNS = system: SNB-19 CNS
HS 578T breast = system: HS 578T breast
SR leukemia = system: SR leukemia
SK-MEL-28 melanoma = system: SK-MEL-28 melanoma
U251 CNS = system: U251 CNS
OVCAR-5 ovarian = system: OVCAR-5 ovarian
MCF7 breast = system: MCF7 breast
K-562 leukemia = system: K-562 leukemia
MALME-3M melanoma = system: MALME-3M melanoma
NCI-H460 lung = system: NCI-H460 lung
T-47D breast = system: T-47D breast
LOX IMVI melanoma = system: LOX IMVI melanoma
SK-MEL-5 melanoma = system: SK-MEL-5 melanoma
IGROV1 ovarian = system: IGROV1 ovarian
EKVX NSCLC = system: EKVX NSCLC
SF-539 CNS = system: SF-539 CNS
SN12C renal = system: SN12C renal
CAKI-1 renal = system: CAKI-1 renal
786-0 renal = system: 786-0 renal
UACC-257 melanoma = system: UACC-257 melanoma
A498 renal = system: A498 renal
HT29 colon = system: HT29 colon
SNB-75 CNS = system: SNB-75 CNS
RXF 393 renal = system: RXF 393 renal
HL-60(TB) leukemia = system: HL-60(TB) leukemia
UO-31 renal = system: UO-31 renal
NCI-H226 lung = system: NCI-H226 lung
ACHN renal = system: ACHN renal
HCT-116 colon = system: HCT-116 colon
MDA-MB-435 = system: MDA-MB-435
SF-268 CNS = system: SF-268 CNS
OVCAR-8 ovarian = system: OVCAR-8 ovarian
CCRF-CEM leukemia = system: CCRF-CEM leukemia
NCI/ADR-RES ovarian = system: NCI/ADR-RES ovarian
MDA-MB-231 breast = system: MDA-MB-231 breast
MOLT-4 leukemia = system: MOLT-4 leukemia
SK-MEL-2 melanoma = system: SK-MEL-2 melanoma
MDA-N = system: MDA-N
NCI-H23 lung = system: NCI-H23 lung
PC-3 prostate = system: PC-3 prostate
SW-620 colon = system: SW-620 colon
HCT-15 colon = system: HCT-15 colon
NCI-H522 lung = system: NCI-H522 lung
HOP-62 NSCLC = system: HOP-62 NSCLC
SK-OV-3 ovarian = system: SK-OV-3 ovarian
SF-295 CNS = system: SF-295 CNS
OVCAR-3 ovarian = system: OVCAR-3 ovarian

C/C=C/C=C/C1=NN(c2cccc(S(=O)(=O)O)c2)C2(C1)SCC(=O)N2c1nc2ccccc2s1 (stereo not given)
TGI (HOP-92 NSCLC): > 100 µM
TGI (UACC-62 melanoma): > 100 µM
TGI (BT-549 breast): > 100 µM
TGI (A549 NSCLC): > 100 µM
TGI (OVCAR-4 ovarian): > 100 µM
TGI (HCC-2998 colon): > 100 µM
TGI (COLO 205 colon): > 100 µM
TGI (RPMI-8226 leukemia): > 100 µM
TGI (DU-145 prostate): > 100 µM
TGI (M14 melanoma): > 100 µM
TGI (KM12 colon): > 100 µM
TGI (TK-10 renal): > 100 µM
TGI (SNB-19 CNS): > 100 µM
TGI (HS 578T breast): > 100 µM
TGI (SR leukemia): 87.6 µM
TGI (SK-MEL-28 melanoma): > 100 µM
TGI (U251 CNS): > 100 µM
TGI (OVCAR-5 ovarian): > 100 µM
TGI (MCF7 breast): > 100 µM
TGI (K-562 leukemia): > 100 µM
TGI (MALME-3M melanoma): > 100 µM
TGI (NCI-H460 lung): > 100 µM
TGI (T-47D breast): > 100 µM
TGI (LOX IMVI melanoma): 51.8 µM
TGI (SK-MEL-5 melanoma): > 100 µM
TGI (IGROV1 ovarian): > 100 µM
TGI (EKVX NSCLC): > 100 µM
TGI (SF-539 CNS): > 100 µM
TGI (SN12C renal): > 100 µM
TGI (CAKI-1 renal): > 100 µM
TGI (786-0 renal): 42.3 µM
TGI (UACC-257 melanoma): > 100 µM
TGI (A498 renal): > 100 µM
TGI (HT29 colon): > 100 µM
TGI (SNB-75 CNS): > 100 µM
TGI (RXF 393 renal): > 100 µM
TGI (HL-60(TB) leukemia): > 100 µM
TGI (UO-31 renal): > 100 µM
TGI (NCI-H226 lung): > 100 µM
TGI (ACHN renal): > 100 µM
TGI (HCT-116 colon): > 100 µM
TGI (MDA-MB-435): > 100 µM
TGI (SF-268 CNS): > 100 µM
TGI (OVCAR-8 ovarian): > 100 µM
TGI (CCRF-CEM leukemia): 77.7 µM
TGI (NCI/ADR-RES ovarian): > 100 µM
TGI (MDA-MB-231 breast): > 100 µM
TGI (MOLT-4 leukemia): > 100 µM
TGI (SK-MEL-2 melanoma): > 100 µM
TGI (MDA-N): > 100 µM
TGI (NCI-H23 lung): > 100 µM
TGI (PC-3 prostate): > 100 µM
TGI (SW-620 colon): > 100 µM
TGI (HCT-15 colon): > 100 µM
TGI (NCI-H522 lung): > 100 µM

COC(=O)C[C@H](COCc1ccccc1)NC(=O)C[C@H](COCc1ccccc1)NC(=O)C[C@H](COCc1ccccc1)NC(=O)OC(C)(C)C
TGI (HOP-92 NSCLC): 73.5 µM
TGI (UACC-62 melanoma): > 100 µM
TGI (BT-549 breast): > 100 µM
TGI (A549 NSCLC): > 100 µM
TGI (OVCAR-4 ovarian): 17.4 µM
TGI (COLO 205 colon): > 100 µM
TGI (RPMI-8226 leukemia): > 100 µM
TGI (DU-145 prostate): > 100 µM
TGI (M14 melanoma): > 100 µM
TGI (KM12 colon): > 100 µM
TGI (HOP-62 NSCLC): 48 µM
TGI (SNB-19 CNS): > 100 µM
TGI (HS 578T breast): > 100 µM
TGI (SR leukemia): > 100 µM
TGI (SK-MEL-28 melanoma): > 100 µM
TGI (U251 CNS): > 100 µM
TGI (OVCAR-5 ovarian): > 100 µM
TGI (SK-OV-3 ovarian): > 100 µM
TGI (MCF7 breast): 28.9 µM
TGI (K-562 leukemia): > 100 µM
TGI (MALME-3M melanoma): > 100 µM
TGI (SF-295 CNS): > 100 µM
TGI (T-47D breast): > 100 µM
TGI (OVCAR-3 ovarian): > 100 µM
TGI (LOX IMVI melanoma): > 100 µM
TGI (SK-MEL-5 melanoma): > 100 µM
TGI (IGROV1 ovarian): > 100 µM
TGI (EKVX NSCLC): > 100 µM
TGI (SF-539 CNS): > 100 µM
TGI (SN12C renal): > 100 µM
TGI (CAKI-1 renal): > 100 µM
TGI (786-0 renal): 72.9 µM
TGI (A498 renal): 67.1 µM
TGI (HT29 colon): > 100 µM
TGI (SNB-75 CNS): 38 µM
TGI (RXF 393 renal): 72 µM
TGI (HL-60(TB) leukemia): > 100 µM
TGI (UO-31 renal): > 100 µM
TGI (NCI-H226 lung): > 100 µM
TGI (ACHN renal): > 100 µM
TGI (HCT-116 colon): 67 µM
TGI (MDA-MB-435): > 100 µM
TGI (SF-268 CNS): > 100 µM
TGI (OVCAR-8 ovarian): > 100 µM
TGI (CCRF-CEM leukemia): > 100 µM
TGI (NCI/ADR-RES ovarian): > 100 µM
TGI (MDA-MB-231 breast): > 100 µM
TGI (MOLT-4 leukemia): > 100 µM
TGI (SK-MEL-2 melanoma): > 100 µM
TGI (MDA-N): > 100 µM
TGI (NCI-H23 lung): > 100 µM
TGI (PC-3 prostate): 41.2 µM
TGI (SW-620 colon): > 100 µM
TGI (HCT-15 colon): > 100 µM
TGI (NCI-H522 lung): > 100 µM
